Test results as given in US11000033B2, “Ketone or oxime compound, and herbicide” (NISSAN CHEMICAL CORPORATION, priority 2014, dated 2021).

Experiments:
Assay type in all cases: in vivo
[1] = system: Abutilon theophrasti; assay: Test Example 5: herbicidal effect by foliage application, plastic box (symbol M); conditions: 320 g/ha, 3 weeks after application
Method in brief: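 After sowing into sterilized diluvial soil and growing two weeks under glass at 25° C. to 30° C., seedlings receive a uniform foliar spray of diluted emulsion. Damage is judged visually three weeks on.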

[2] = system: Apera spica-venti; assay: Test Example 4: herbicidal effect by soil treatment (symbol L); conditions: application herbicide amount 320 g/ha
Method in brief: (§1)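 Seeds were sown in sterilized diluvial soil, covered with about 1.5 cm of soil, and the soil surface was sprayed with a water-diluted emulsion of the compound at a predetermined rate. Plants grew in a greenhouse at 25° C. to 30° C.; effects were scored visually 3 weeks after application.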

[3] = system: wheat; assay: Test Example 4: effect on crop by soil treatment (symbol e); conditions: application herbicide amount 320 g/ha
Method in brief: (§2)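 Steps: fill box with sterilized diluvial soil; sow seed spot-like; cover with ~1.5 cm soil; grow in greenhouse (25° C. to 30° C.).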

[4] = system: rice; assay: Test Example 4: effect on crop by soil treatment (symbol b); conditions: application herbicide amount 320 g/ha
Method in brief: as §2

[5] = system: rapeseed; assay: Test Example 5: effect on crop by foliage application, plastic box (symbol g); conditions: 320 g/ha, 3 weeks after application
Method in brief: (§3)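 Crop seed is sown alongside grass and broadleaf weed species in spots in sterilized diluvial soil, then covered to a depth of about 1.5 cm. Plants grow in a greenhouse kept at 25° C. to 30° C.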

[6] = system: Avena fatua; assay: Test Example 4: herbicidal effect by soil treatment (symbol I); conditions: application herbicide amount 320 g/ha
Method in brief: as §1

[7] = system: directly sowed rice plant; assay: Test Example 3: effect on crop by foliage application, Wagner pot (symbol b); conditions: application herbicide amount 320 g/ha
Method in brief: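 Greenhouse culture at 25–30 °C of seeded rice, Cyperus difformis, Leptochloa chinensis and Echinochloa crus-galli var. crus-galli, in alluvial soil held under 0.1–0.5 cm of water in a Wagner pot.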

[8] = system: rice plant; assay: Test Example 5: effect on crop by foliage application, plastic box (symbol b); conditions: 320 g/ha, 3 weeks after application
Method in brief: as §3

[9] = system: rapeseed; assay: Test Example 4: effect on crop by soil treatment (symbol g); conditions: application herbicide amount 320 g/ha
Method in brief: as §2

[10] = system: Lolium multiflorum Lam.; assay: Test Example 4: herbicidal effect by soil treatment (symbol K); conditions: application herbicide amount 320 g/ha
Method in brief: as §1

[11] = system: wheat; assay: Test Example 5: effect on crop by foliage application, plastic box (symbol e); conditions: 320 g/ha, 3 weeks after application
Method in brief: as §3

[12] = system: Scirpus juncoides; assay: Test Example 2: herbicidal activity, application during weed generation in submerged conditions (symbol B); conditions: Table 23; application herbicide amount 320 g/ha; grade 0-5 by criteria of Test Example 1
Method in brief: (§4)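 Weeds emerging under flooded conditions were treated with compound formulated as an emulsion and diluted with water to the intended herbicide amount, poured onto the surface of 4 cm standing water. Seeds had been co-sown in alluvial soil; plants grew at 25° C. to 30° C. and were assessed after 3 weeks.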

[13] = system: soybean; assay: Test Example 4: effect on crop by soil treatment (symbol d); conditions: application herbicide amount 320 g/ha
Method in brief: as §2

[14] = system: beet; assay: Test Example 5: effect on crop by foliage application, plastic box (symbol f); conditions: 320 g/ha, 3 weeks after application
Method in brief: as §3

[15] = system: Amaranthus retroflexus; assay: Test Example 4: herbicidal effect by soil treatment (symbol N); conditions: application herbicide amount 320 g/ha
Method in brief: as §1

[16] = system: Echinochloa oryzacola Vasing.; assay: Test Example 2: herbicidal activity, application during weed generation in submerged conditions (symbol A); conditions: Table 23; application herbicide amount 320 g/ha; grade 0-5 by criteria of Test Example 1
Method in brief: as §4

Compound	M: Abutilon theophrasti, herbicidal effect (criteria of Test Example 1) [1]	Herbicidal effect grade, L: Apera spica-venti [2]	Effect on crop grade, e: wheat [3]	Effect on crop grade, b: directly sowed rice plant [4]	g: rapeseed, effect on crop (criteria of Test Example 1) [5]	Herbicidal effect grade, I: Avena fatua [6]	effect on crop b (directly sowed rice plant), grade 0-5 [7]	b: directly sowed rice plant, effect on crop (criteria of Test Example 1) [8]	Effect on crop grade, g: rapeseed [9]	Herbicidal effect grade, K: Lolium multiflorum Lam. [10]	e: wheat, effect on crop (criteria of Test Example 1) [11]	Herbicidal effect grade, B: Scirpus juncoides [12]	Effect on crop grade, d: soybean [13]	f: beet, effect on crop (criteria of Test Example 1) [14]	Herbicidal effect grade, N: Amaranthus retroflexus [15]	Herbicidal effect grade, A: Echinochloa oryzacola Vasing. [16]
CC(=O)CC1CC(O)=C(c2c(C)cc(Br)cc2C)C1=O (centres unmarked) [7-002]	0 (Herbicidal ratio of 5% or lower (almost no effect))	5 (Herbicidal ratio of 90% or more (almost completely withered))	0 (Herbicidal ratio of 5% or lower (almost no effect))	5 (Herbicidal ratio of 90% or more (almost completely withered))	0 (Herbicidal ratio of 5% or lower (almost no effect))	0 (Herbicidal ratio of 5% or lower (almost no effect))	5 (Herbicidal ratio of 90% or more (almost completely withered))	5 (Herbicidal ratio of 90% or more (almost completely withered))	0 (Herbicidal ratio of 5% or lower (almost no effect))	5 (Herbicidal ratio of 90% or more (almost completely withered))	0 (Herbicidal ratio of 5% or lower (almost no effect))	0 (Herbicidal ratio of 5% or lower (almost no effect))	0 (Herbicidal ratio of 5% or lower (almost no effect))	0 (Herbicidal ratio of 5% or lower (almost no effect))	0 (Herbicidal ratio of 5% or lower (almost no effect))	0 (Herbicidal ratio of 5% or lower (almost no effect))
CCc1cc(Br)cc(C)c1C1=C(O)CC(CC(C)=O)C1=O (centres unmarked) [7-003]	0 (Herbicidal ratio of 5% or lower (almost no effect))	5 (Herbicidal ratio of 90% or more (almost completely withered))	0 (Herbicidal ratio of 5% or lower (almost no effect))	5 (Herbicidal ratio of 90% or more (almost completely withered))	0 (Herbicidal ratio of 5% or lower (almost no effect))	4 (Herbicidal ratio of 70% or higher and lower than 90%)	5 (Herbicidal ratio of 90% or more (almost completely withered))	5 (Herbicidal ratio of 90% or more (almost completely withered))	0 (Herbicidal ratio of 5% or lower (almost no effect))	5 (Herbicidal ratio of 90% or more (almost completely withered))	0 (Herbicidal ratio of 5% or lower (almost no effect))	0 (Herbicidal ratio of 5% or lower (almost no effect))	0 (Herbicidal ratio of 5% or lower (almost no effect))	0 (Herbicidal ratio of 5% or lower (almost no effect))	0 (Herbicidal ratio of 5% or lower (almost no effect))	2 (Herbicidal ratio of 20% or higher and lower than 40%)
CC(=O)CC1CC(O)=C(c2c(C)cc(-c3ccccc3)cc2C)C1=O (centres unmarked) [7-004]	0 (Herbicidal ratio of 5% or lower (almost no effect))	5 (Herbicidal ratio of 90% or more (almost completely withered))	0 (Herbicidal ratio of 5% or lower (almost no effect))	5 (Herbicidal ratio of 90% or more (almost completely withered))	3 (Herbicidal ratio of 40% or higher and lower than 70%)	0 (Herbicidal ratio of 5% or lower (almost no effect))	5 (Herbicidal ratio of 90% or more (almost completely withered))	5 (Herbicidal ratio of 90% or more (almost completely withered))	3 (Herbicidal ratio of 40% or higher and lower than 70%)	5 (Herbicidal ratio of 90% or more (almost completely withered))	0 (Herbicidal ratio of 5% or lower (almost no effect))	0 (Herbicidal ratio of 5% or lower (almost no effect))	0 (Herbicidal ratio of 5% or lower (almost no effect))	0 (Herbicidal ratio of 5% or lower (almost no effect))	2 (Herbicidal ratio of 20% or higher and lower than 40%)	4 (Herbicidal ratio of 70% or higher and lower than 90%)
CC(=O)CC1CC(O)=C(c2c(C)cc(-c3ccc(C(F)(F)F)cc3)cc2C)C1=O (centres unmarked) [7-005]	0 (Herbicidal ratio of 5% or lower (almost no effect))	0 (Herbicidal ratio of 5% or lower (almost no effect))	0 (Herbicidal ratio of 5% or lower (almost no effect))	1 (Herbicidal ratio of 5% or higher and lower than 20%)	0 (Herbicidal ratio of 5% or lower (almost no effect))	0 (Herbicidal ratio of 5% or lower (almost no effect))	5 (Herbicidal ratio of 90% or more (almost completely withered))	4 (Herbicidal ratio of 70% or higher and lower than 90%)	0 (Herbicidal ratio of 5% or lower (almost no effect))	2 (Herbicidal ratio of 20% or higher and lower than 40%)	0 (Herbicidal ratio of 5% or lower (almost no effect))	0 (Herbicidal ratio of 5% or lower (almost no effect))	0 (Herbicidal ratio of 5% or lower (almost no effect))	0 (Herbicidal ratio of 5% or lower (almost no effect))	0 (Herbicidal ratio of 5% or lower (almost no effect))	1 (Herbicidal ratio of 5% or higher and lower than 20%)
COc1ccc(-c2cc(C)c(C3=C(O)CC(CC(C)=O)C3=O)c(C)c2)cc1 (centres unmarked) [7-006]	0 (Herbicidal ratio of 5% or lower (almost no effect))	0 (Herbicidal ratio of 5% or lower (almost no effect))	0 (Herbicidal ratio of 5% or lower (almost no effect))	3 (Herbicidal ratio of 40% or higher and lower than 70%)	3 (Herbicidal ratio of 40% or higher and lower than 70%)	0 (Herbicidal ratio of 5% or lower (almost no effect))	5 (Herbicidal ratio of 90% or more (almost completely withered))	5 (Herbicidal ratio of 90% or more (almost completely withered))	0 (Herbicidal ratio of 5% or lower (almost no effect))	2 (Herbicidal ratio of 20% or higher and lower than 40%)	0 (Herbicidal ratio of 5% or lower (almost no effect))	0 (Herbicidal ratio of 5% or lower (almost no effect))	1 (Herbicidal ratio of 5% or higher and lower than 20%)	0 (Herbicidal ratio of 5% or lower (almost no effect))	0 (Herbicidal ratio of 5% or lower (almost no effect))	2 (Herbicidal ratio of 20% or higher and lower than 40%)
